In EP3156398A1, “AGONISTS OF THE CHEMOKINE RECEPTOR CXCR3” (Friedrich-Alexander-Universität Erlangen-Nürnberg, priority 2015, dated 2017):
Entries after “also recorded” stand apart in the source; their conditions may differ.

Legend:
CXCR3 = molecular target: T1, CXCR3 (Homo sapiens, UniProt P49682); assay: [35S]GTPγS incorporation assay; assay type: biochemical; conditions: for CXCR3 Efficacy (%) ± SEM: % of CXCL11 mediated effect; for CXCR3 Efficacy (%) ± SEM / CXCR3 pEC50 ± SEM: membrane preparations of HEK293T stably expressing CXCR3; for CXCR3 mediated G protein activation (result in words): [35S]GTPγS incorporation; for CXCR3 pEC50 ± SEM: mean of three experiments in triplicate
T1 construct: expressed in transfected cells; host or cells: HEK293 / HEK293T cells, stably transfected; membrane preparations
T1 sequence (P49682 1-368): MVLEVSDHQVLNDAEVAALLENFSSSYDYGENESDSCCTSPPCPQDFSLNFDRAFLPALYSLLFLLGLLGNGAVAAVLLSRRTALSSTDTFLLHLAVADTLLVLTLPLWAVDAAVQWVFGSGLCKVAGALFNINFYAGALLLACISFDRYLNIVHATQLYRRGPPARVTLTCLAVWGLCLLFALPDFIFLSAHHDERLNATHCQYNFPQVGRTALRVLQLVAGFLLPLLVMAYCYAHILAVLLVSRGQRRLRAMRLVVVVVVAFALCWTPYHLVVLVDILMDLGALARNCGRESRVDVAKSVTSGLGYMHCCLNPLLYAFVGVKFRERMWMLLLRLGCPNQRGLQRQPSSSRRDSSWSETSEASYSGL
Method in brief: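 Membranes from HEK293 cells stably expressing human CXCR3 (30 µg/mL protein) preincubated 30 min at 37 °C with test compound, CXCL11 and 1 µM GDP in HEPES/MgCl2/NaCl/saponin buffer, pH 7.4. Then 0.10 nM [35S]GTPγS added for 30 min at 37 °C; filter-bound radioactivity counted, triplicates, 3–4 experiments.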

[1] = test system: HEK293 cells transiently transfected with CXCR3; assay: Transwell migration assay; assay type: cell-based, human; conditions: for influence on CXCL11 induced migration: cells pre-incubated 15 minutes, compound in both chambers, CXCL11 as chemoattractant, Figure 5B; for induced migration compared to buffer control: compound applied to the source reservoir, on its own, 5 h, Figure 5A
Protocol: Transwell migration assay. HEK-293 cells were maintained in DMEM medium supplemented with 10% FBS and 1% penicillin/streptomycin. For DNA transfection, 5 µg plasmid DNA (CXCR3) was mixed with TE buffer to give a final of 105 µl solution and 15 µl CaCl2 (2M) was added. The DNA mixture was then dripped into 120 µl 2x HBSS solution, and the mixture was allowed to form calcium-phosphate precipitates for 45 minutes. The DNA/calcium-phosphate precipitate was dripped onto HEK293 cells (50% confluent in T25 flask), where the medium had been renewed and reduced to 1.5 ml 30 minutes prior to transfection. The cells were split and used for assays 48 h after transfection.
Migration of serum-starved HEK293 cell transiently transfected with CXCR3 was assessed using Transwell™ membranes (Costar; 8-µm pore). Filters were coated with 10 µg•mL^-1 fibronectin (in PBS 30 minutes at room temperature). The fibronectin solution was removed and the filters allowed to air-dry. The filters were placed in a 24-well dish that contained low serum (0.2%) DMEM supplemented with agonists or control buffer. HEK293 cells suspended in 0.2% serum DMEM containing test compounds were added to the upper chamber (1 × 10^5 cells/well). Cells were allowed to migrate for 5 h at 37 °C. Nonmigrated cells were removed from the top filter surface with a cotton swab. Migrated cells, attached to the bottom surface, were fixed in 3.7% formaldehyde (in PBS) and dyed with crystal violet. Transmigrated cells were counted in 5 predefined areas on the membrane using 20X objective.
To investigate the influence of FAUC1036 and FAUC1104 on CXCR3 induced migration, the inventors used these compounds alongside CXCL11 in a standard transwell assay with HEK293 cells transiently transfected with CXCR3. […] To test whether FAUC1036 and FAUC1104 influence CXCL11 induced migration, the inventors pre-incubated the cells with these compounds for 15 minutes and then set up the migration assay in the presence of either compound in both the top chamber (sink) containing the cells and in the lower chamber (source) containing CXCL11 as chemoattractant.

CXCR3 Efficacy (%) ± SEM (CXCR3)	CXCR3 pEC50 ± SEM (CXCR3)	Compound	CXCR3 mediated G protein activation (result in words) (CXCR3; listed as 11/FAUC1036)	CXCR3 mediated G protein activation (result in words) (CXCR3; listed as FAUC1036)	chemotaxis (result in words) [1]	influence on CXCL11 induced migration [1]	induced migration compared to buffer control [1]	CXCR3 Efficacy (%) ± SEM (CXCR3; listed as 14/FAUC1104)	CXCR3 Efficacy (%) ± SEM (CXCR3; listed as FAUC1104)	CXCR3 pEC50 ± SEM (CXCR3; listed as 14/FAUC1104)	CXCR3 pEC50 ± SEM (CXCR3; listed as FAUC1104)	Emax (CXCR3; read-out: CXCR3 Efficacy (%) ± SEM)
No effect	No effect	CC(C)(C)OC(=O)N[C@@H](CCCCNC(=O)[C@@H]1Cc2ccccc2CN1C(=O)CCC(=O)c1ccccc1)C(=O)NCC(c1ccccc1)c1ccccc1 [Compound 11, Tert-butyl ((S)-1-((2,2-diphenylethyl)amino)-1-oxo-6-((S)-2-(4-oxo-4-phenylbutanoyl)-1,2,3,4-tertahydroisoquinoline-3-carboxamido)hexan-2-yl)carbamate]	failed to induce CXCR3 mediated G protein activation	without any activation of G proteins; also recorded: has no effect on the G-protein signalling	weak chemotaxis	no antagonizing effect	approximately 0.25 fold					
		COc1ccc(C(=O)CCC(=O)N2Cc3ccccc3C[C@H]2C(=O)NCCCC[C@H](NC(=O)OC(C)(C)C)C(=O)NCC(c2ccccc2)c2ccccc2)cc1 [Compound 14, Tert-butyl ((S)-1-((2,2-diphenylethyl)amino)-6-((S)-2-(4-(4-methoxyphenyl)-4-oxobutanoyl)-1,2,3,4-tetrahydroisoquinoline-3-carboxamido)-1-oxohexan-2-yl)carbomate]			strong chemotaxis	significantly higher CXCL11 induced migration	approximately 0.25 fold	50±19%	50%	5.22±0.31	5.22	50%
